Results on one compound are retold here after patent US9580398B2, “Compounds, compositions, and methods for modulating ferroptosis and treating excitotoxic disorders” (The Trustees of Columbia University in the City of New York, priority 2012, dated 2017).

In general, EC50 refers to the concentration needed to bring the measured effect to its halfway point.

Holding throughout (format): cell-based, human
Assay [1] has as its system erastin (10 μM)-treated HT-1080 cells. The assay is described as follows: Inhibition of death in erastin (10 μM)-treated HT-1080 cells, viability by Alamar Blue. The settings on record: inhibition of death in erastin (10 μM)-treated HT-1080 cells; Alamar Blue; from dose response curves. The procedure: (§1) Cell viability was typically assessed in 384-well format by Alamar Blue (Invitrogen) fluorescence (ex/em 530/590) measured on a Victor3 platereader (Perkin Elmer, Waltham, Mass.). In some experiments, Trypan Blue dye exclusion counting was performed using an automated cell counter (ViCell, Beckman-Coulter Inc., Brea, Calif.). Cell viability in test conditions is reported as a percentage relative to the negative control treatment.
Flow cytometry data was analyzed using FloJo (9.3.2, Tree Star, Inc., Ashland, Oreg.). Chemical structures were drawn using ChemDraw Ultra (Cambridgesoft, Cambridge, Mass.). Computational determination of log P (Slog P function) was performed using MOE 2010.10 (Chemical Computing Group, Montreal, […].). Viability data was analyzed using Excel (Microsoft Corp., […].). Summary data and heatmaps were generated using R. Dose-response curves were computed by 4-parameter logistic regression in Prism 5.0c (GraphPad Software). Images were manipulated using Photoshop CS4 and Illustrator CS4 (Adobe, San Jose, Calif.).
The ability of various compounds disclosed herein to inhibit death in erastin (10 μM)-treated HT-1080 cells were tested. Cell viability was assessed by Alamar Blue. EC50 values (nM) were computed from dose response curves.

Assay [2] concerns HT-1080 cells. The assay is described as follows: HT-1080 cell proliferation (Vi-Cell). The note with it: over 48 hours. The method, then:
as §1

In assay [3] the test system is HT-1080 cells. The assay is described as follows: LOC library screening and confirmation: inhibition of erastin-induced ferroptosis. The settings on record: LOC library screening and confirmation studies, read-out: EC50, inhibitor of erastin-induced ferroptosis. The method, then:
The LOC library was screened over the course of several days. 384-well glass bottom assay plates (Corning) were seeded with 1,000 HT-1080 cells/well the day before the experiment. The day of the experiment, LOC mother plates were thawed at room temperature for 1 hour and spun at 1000 rpm for 1 minute prior to use. Using a BioMek liquid handing robot, 2 μL of compound solution from each LOC library mother plate was transferred to a 384 deep well “daughter” plate (Grenier) containing 148 μL of cell culture media. The cell culture media in each assay plate was then removed by flicking and, using a BioMek FX, replaced with 36 μL of growth media containing erastin (5 μM final). To this was added 4 μL of the drug solution from the daughter plate, for a final screening concentration of 5.3 μg/mL for each LOC library compound. 4 wells containing DMSO alone (no erastin), 4 wells containing 100 μM DFO alone (no erastin), 4 wells containing erastin plus DMSO, and 4 wells containing erastin plus 100 μM DFO (positive control) were included as controls on each plate. Each drug daughter plate was aliquoted separately to duplicate assay plates. Plates were then spun briefly (1000 rpm, 5 seconds) and returned to the 37° C. tissue culture incubator. 24 hours later, cell viability was assessed by Alamar Blue as described above.
Candidate hits from the LOC library screen were identified. […]

Turning to `CCOC(=O)c1ccc(NC2CCCCC2)c(N)c1` [Fer-1, ferrostatin-1], the EC50 in assay [1] was found to be 95 nM; in assay [3] it was 60 nM. The HT-1080 cell proliferation entry in assay [2] is on record as “did not inhibit ERK phosphorylation or arrest the proliferation of HT-1080 cells”.
